{"source": "patent US6864217B2", "about": "“Herbicidal compositions with substituted phenylsulfonylureas for controlling weeds in rice” (Hoechst Schering AgrEvo GmbH, priority 1998, dated 2005)", "key": {"Oryza sativa [1]": {"tested_on": "Oryza sativa", "assay": "Table 21 field trial, treatment at the 2 leaf stage: rice damage", "assay_type": "in vivo", "conditions": "in vivo", "text": "(§1) Field trial: Treatment at the 2 leaf stage, evaluation 28 days after the application."}, "Cyperus serotinus [2]": {"tested_on": "Cyperus serotinus", "assay": "Table 21 field trial, treatment at the 2 leaf stage: weed control", "assay_type": "in vivo", "conditions": "60 g of ai/ha, 28 days after application", "text": "as §1"}, "Oryza sativa [3]": {"tested_on": "Oryza sativa", "assay": "Table 25 field trial, treatment at the 3 leaf stage: rice damage", "assay_type": "in vivo", "conditions": "33 days after application", "text": "(§2) Field trial: Treatment at the 3 leaf stage, evaluation 33 days after the application."}, "Polygonum convolvulus": {"tested_on": "Polygonum convolvulus", "assay": "Table 25 field trial, treatment at the 3 leaf stage: weed control", "assay_type": "in vivo", "conditions": "33 days after application", "text": "as §2"}, "Oryza sativa [4]": {"tested_on": "Oryza sativa", "assay": "Table 19 field trial, treatment at the 2 leaf stage: rice damage", "assay_type": "in vivo", "conditions": "14 days after application", "text": "(§3) Field trial: Treatment at the 2 leaf stage, evaluation 14 days after the application."}, "Cyperus serotinus [5]": {"tested_on": "Cyperus serotinus", "assay": "Table 19 field trial, treatment at the 2 leaf stage: weed control", "assay_type": "in vivo", "conditions": "14 days after application", "text": "as §3"}, "Oryza sativa [6]": {"tested_on": "Oryza sativa", "assay": "Table 20 field trial, treatment at the 4-6 leaf stage: rice damage", "assay_type": "in vivo", "conditions": "420 g of ai/ha, 28 days after application", "text": "(§4) Field trial: Treatment at the 4-6 leaf stage, evaluation 28 days after the application."}, "Ipomoea hederacea": {"tested_on": "Ipomoea hederacea", "assay": "Table 20 field trial, treatment at the 4-6 leaf stage: weed control", "assay_type": "in vivo", "conditions": "420 g of ai/ha, 28 days after application", "text": "as §4"}, "Cyperus iria": {"tested_on": "Cyperus iria", "assay": "Table 24 field trial, treatment by the pre-emergence method: weed control", "assay_type": "in vivo", "conditions": "400 g of ai/ha, 53 days after application", "text": "(§5) Field trial: Treatment by the pre-emergence method, evaluation 53 days after the application."}, "Oryza sativa [7]": {"tested_on": "Oryza sativa", "assay": "Table 24 field trial, treatment by the pre-emergence method: rice damage", "assay_type": "in vivo", "conditions": "in vivo", "text": "as §5"}, "Commelina benghalensis": {"tested_on": "Commelina benghalensis", "assay": "Table 26 field trial, treatment at the 3 leaf stage: weed control", "assay_type": "in vivo", "conditions": "33 days after application", "text": "as §2"}, "Oryza sativa [8]": {"tested_on": "Oryza sativa", "assay": "Table 26 field trial, treatment at the 3 leaf stage: rice damage", "assay_type": "in vivo", "conditions": "33 days after application", "text": "as §2"}, "Cyperus serotinus [9]": {"tested_on": "Cyperus serotinus", "assay": "Table 12 greenhouse trial, treatment at the 1-2 leaf stage: weed control", "assay_type": "in vivo", "conditions": "20 days after application", "method": "(§6) Seeds or rhizome pieces of mono- and dicotyledonous weed plants are placed into sandy loam soil in plastic pots, covered with soil and grown in a greenhouse under good growth conditions (temperature, atmospheric humidity, water supply). Weeds which are encountered in the cultivation of rice are cultivated in pots in which the water level is up to 2 cm over the soil surface. Three weeks after sowing, the test plants are treated at the three-leaf stage. The active compound combinations according to the invention, formulated as wettable powders or emulsion concentrates, and, in parallel experiments, the correspondingly formulated individual active compounds are sprayed onto the green parts of the plants at different dosages using an amount of water of 300 to 600 l/ha (converted), and, after about 3 to 4 weeks of the test plants in the greenhouse under optimum growth conditions (temperature, atmospheric humidity, water supply), the effect of the preparations is evaluated visually in comparison to untreated controls. In the case of rice or weeds which are encountered in the cultivation of rice, the active compounds are also added directly to the water for irrigation (application analogous to the so-called granules application) or sprayed onto plants and added to the water for irrigation. The experiments were designed with several, up to five, repetitions. The herbicidal compositions according to the invention also have good herbicidal post-emergence activity against a broad spectrum of economically important weed grasses and broad-leaved weeds.\n(§7) Greenhouse trial: Treatment at the 1-2 leaf stage, evaluation 20 days after the application."}, "Oryza sativa [10]": {"tested_on": "Oryza sativa", "assay": "Table 12 greenhouse trial, treatment at the 1-2 leaf stage: rice damage", "assay_type": "in vivo", "conditions": "greenhouse trial, 20 days after application", "method": "as §6, §7"}, "Oryza sativa [11]": {"tested_on": "Oryza sativa", "conditions": "in vivo", "method": "as §6, with “The herbicidal compositions according to the invention also have good herbicidal post-emergence activity against a broad spectrum of economically important weed grasses and broad-leaved weeds.” left out"}, "Echinochloa crusgalli": {"tested_on": "Echinochloa crusgalli", "assay": "Table 11 greenhouse trial, treatment at the 1-2 leaf stage: weed control", "assay_type": "in vivo", "conditions": "20 days after application", "method": "as §6, §7"}}, "note": "Read-outs that look alike come from different tables or passages of the source."}
{"smiles": "CSC(=O)c1c(C(F)F)nc(C(F)(F)F)c(C(=O)SC)c1CC(C)C", "note": "[B24), S,S′-dimethyl-2-(difluoromethyl)-4-(2-methylpropyl)-6-(trifluoromethyl)-3,5-pyridindicarbothioate]", "values": [{"measurement": "ORYSW % damage", "setting": "Oryza sativa [1]", "result": 6, "unit": "%"}, {"measurement": "CYPSE % control", "setting": "Cyperus serotinus [2]", "result": 60, "unit": "%"}]}
{"smiles": "COc1c(Cl)ccc(Cl)c1C(=O)O", "note": "[B31), 3,6-dichloro-o-anisic acid]", "values": [{"measurement": "ORYSW % damage", "setting": "Oryza sativa [3]; 240 g of ai/ha", "result": 8, "unit": "%"}, {"measurement": "ORYSW % damage", "setting": "Oryza sativa [3]; 480 g of ai/ha", "result": 10, "unit": "%"}, {"measurement": "POLCO % control", "setting": "Polygonum convolvulus; 240 g of ai/ha", "result": 45, "unit": "%"}, {"measurement": "POLCO % control", "setting": "Polygonum convolvulus; 480 g of ai/ha", "result": 80, "unit": "%"}]}
{"smiles": "C#CCN(C)c1c(C#N)cnn1-c1nn2c(c1Cl)CCCC2", "note": "[B33b)]", "values": [{"measurement": "ORYSW % damage", "setting": "Oryza sativa [4]; 100 g of ai/ha", "result": 6, "unit": "%"}, {"measurement": "ORYSW % damage", "setting": "Oryza sativa [4]; 200 g of ai/ha", "result": 8, "unit": "%"}, {"measurement": "ORYSW % damage", "setting": "Oryza sativa [4]; 400 g of ai/ha", "result": 12, "unit": "%"}, {"measurement": "CYPSE % control", "setting": "Cyperus serotinus [5]; 100 g of ai/ha", "result": 40, "unit": "%"}, {"measurement": "CYPSE % control", "setting": "Cyperus serotinus [5]; 200 g of ai/ha", "result": 50, "unit": "%"}, {"measurement": "CYPSE % control", "setting": "Cyperus serotinus [5]; 400 g of ai/ha", "result": 80, "unit": "%"}]}
{"smiles": "O=C(O)COc1nc(Cl)c(Cl)cc1Cl", "note": "[B40), [(3,5,6-trichloro-2-pyridinyl)oxy]acetic acid]", "values": [{"measurement": "ORYSW % damage", "setting": "Oryza sativa [6]", "result": 20, "unit": "%"}, {"measurement": "IPOHE % control", "setting": "Ipomoea hederacea", "result": 65, "unit": "%"}]}
{"smiles": "CC1(C)CON(Cc2ccccc2Cl)C1=O", "note": "[B44), 2-[(2-chlorophenyl)methyl]-4,4-dimethyl-3-isoxazolidinone]", "values": [{"measurement": "CYPIR % control", "setting": "Cyperus iria", "result": 30, "unit": "%"}, {"measurement": "ORYSW % damage", "setting": "Oryza sativa [7]", "result": 0, "unit": "%"}]}
{"smiles": "COc1nc(C)nc(NC(=O)NS(=O)(=O)c2ccccc2C(=O)O)n1", "note": "[B57), 2-(4-methoxy-6-methyl-1,3,5-triazin-2-ylcarbamoyl-sulfamoyl)benzoic acid]", "values": [{"measurement": "COMBE % control", "setting": "Commelina benghalensis; 1 g of ai/ha", "result": 20, "unit": "%"}, {"measurement": "COMBE % control", "setting": "Commelina benghalensis; 2 g of ai/ha", "result": 68, "unit": "%"}, {"measurement": "ORYSW % damage", "setting": "Oryza sativa [8]; 1 g of ai/ha", "result": 0, "unit": "%"}, {"measurement": "ORYSW % damage", "setting": "Oryza sativa [8]; 2 g of ai/ha", "result": 0, "unit": "%"}]}
{"smiles": "COCCOc1ccccc1S(=O)(=O)NC(=O)Nc1nc(OC)nc(OC)n1", "note": "[B60), N-[[(4,6-dimethoxy-1,3,5-triazin-2-yl)amino]carbonyl]-2-(2-methoxyethoxy)benzolsulfonamide]", "values": [{"measurement": "CYPSE % control", "setting": "Cyperus serotinus [9]; 15 g of ai/ha", "result": 0, "unit": "%"}, {"measurement": "CYPSE % control", "setting": "Cyperus serotinus [9]; 30 g of ai/ha", "result": 15, "unit": "%"}, {"measurement": "CYPSE % control", "setting": "Cyperus serotinus [9]; 60 g of ai/ha", "result": 15, "unit": "%"}, {"measurement": "ORYSW % damage", "setting": "Oryza sativa [10]; 15 g of ai/ha", "result": 0, "unit": "%"}, {"measurement": "ORYSW % damage", "setting": "Oryza sativa [10]; 30 g of ai/ha", "result": 0, "unit": "%"}, {"measurement": "ORYSW % damage", "setting": "Oryza sativa [10]; 60 g of ai/ha", "result": 5, "unit": "%"}]}
{"smiles": "COc1cc(OC)nc(NC(=O)NS(=O)(=O)c2c(Cl)nc3ccccn23)n1", "note": "[B61), 2-chloro-N-[[(4,6-dimethoxy-2-pyrimidinyl)amino]-carbonyl]imidazo[1,2-a]pyridine-3-sulfonamide]", "values": [{"measurement": "ORYSW % damage", "setting": "Oryza sativa [11]", "result": 0, "unit": "%"}, {"measurement": "ECHCG % control", "setting": "Echinochloa crusgalli; 8 g of ai/ha", "result": 0, "unit": "%"}, {"measurement": "ECHCG % control", "setting": "Echinochloa crusgalli; 15 g of ai/ha", "result": 25, "unit": "%"}, {"measurement": "ECHCG % control", "setting": "Echinochloa crusgalli; 30 g of ai/ha", "result": 50, "unit": "%"}, {"measurement": "ECHCG % control", "setting": "Echinochloa crusgalli; 60 g of ai/ha", "result": 60, "unit": "%"}]}
{"smiles": "CC(C)=C1OC(=O)N(c2cc(OC3CCCC3)c(Cl)cc2F)C1=O", "note": "[B70), 3-(4-chloro-5-cyclopentyloxy-2-fluorophenyl)-5-iso-propylidene-1,3-oxazolidine-2,4-dione]", "values": [{"measurement": "ORYSW % damage", "setting": "Oryza sativa [4]; 150 g of ai/ha", "result": 0, "unit": "%"}, {"measurement": "ORYSW % damage", "setting": "Oryza sativa [4]; 450 g of ai/ha", "result": 0, "unit": "%"}, {"measurement": "CYPSE % control", "setting": "Cyperus serotinus [5]; 150 g of ai/ha", "result": 50, "unit": "%"}, {"measurement": "CYPSE % control", "setting": "Cyperus serotinus [5]; 450 g of ai/ha", "result": 65, "unit": "%"}]}
